According to patent publication US20140107166A1, “HISTONE DEACETYLASE INHIBITORS AND METHODS OF USE THEREOF” (DANA-FARBER CANCER INSTITUTE, INC., priority 2011, published 2014):

Tested on: HDACs
Experiment: HDAC deacetylase inhibition assay (trypsin-coupled fluorescent substrate)
Format: biochemical
Protocol: Selected compounds of the invention were tested for activity against a number of HDACs. The assays were performed substantially as described in PCT Patent Application WO/2008/091349. In brief, a target substrate is incubated with an HDAC or other protein with deacetylase activity in the presence of a test compound. In certain embodiments, the target substrate includes an acetylated lysine residue. Deacetylation of the substrate allows trypsin or another protease to cleave the substrate, thereby releasing a fluorescent probe. Fluorescence can be continuously monitored in order to determine the ability of the test compound to inhibit the deacetylation activity. The HDAC or other enzyme may be purified or used crude in the inventive assay. In certain embodiments, the assay is a cell-free assay.

inhibition of HDAC (result in words): inhibitor of HDAC
SMILES: CCCCOc1ccc(CC(=O)NO)cc1 [bufexamac]
